Experimental data as given in patent US9493455B2, “Azaindole derivatives as inhibitors of protein kinases” (ORIBASE PHARMA, priority 2012, dated 2016).

Legend:
ABL = target: T1, ABL (Homo sapiens, UniProt P00519); test: In vitro kinase assay (Z′-LYTE); format: biochemical; settings: read-out: % of inhibition of the kinase compared to the control
T1 construct: purchased Invitrogen
Description: (§1) The inhibitory activity of the compounds on several kinases including BRAF, EGFR (ErbB1), EGFR (ErbB1) T790M L858R, FGFR2, KDR (VEGFR2), PDGFRA (PDGFR alpha), SRC and other was evaluated by Invitrogen using the Z′-LYTE® technology. Briefly, the Z′-LYTE® biochemical assay employs a fluorescence-based, coupled-enzyme format and is based on the differential sensitivity of phosphorylated and non-phosphorylated peptides to proteolytic cleavage. The peptide substrate is labeled with two fluorophores—one at each end—that make up a FRET pair. A ratiometric method, which calculates the ratio (the Emission Ratio) of donor emission to acceptor emission after excitation of the donor fluorophore at 400 nm, is used to quantitate reaction progress.
(§2) The compounds are screened in 1% DMSO (final) in the well. For 10 point titrations, 3-fold serial dilutions are conducted from the starting concentration. All Peptide/Kinase Mixtures are diluted to a 2× working concentration in the appropriate Kinase Buffer. All ATP Solutions are diluted to a 4× working concentration in Kinase Buffer (50 mM HEPES pH 7.5, 0.01% BRIJ-35, 10 mM MgCl2, 1 mM EGTA). ATP Km apparent is previously determined using a Z′-LYTE® assay.
(§3) Each compound was incubated at a concentration of 100 nM (excepted to test the activity against ABL and ABL T315I for which the compounds were incubated at a concentration of 10 μM) and the tables B1 to B12 summarize the results obtained showing the inhibitory power of a compound. The inhibitory activity of OR0512 was also investigated using the same assays and the kinases for which activity was inhibited at more than 50% at the concentration of 100 nM of OR0512 are listed in the table B13.

ABL T315I = target: T2, ABL T315I (Homo sapiens, UniProt P00519, T315I); test: In vitro kinase assay (Z′-LYTE); format: biochemical; settings: read-out: % of inhibition of the kinase compared to the control
T2 construct: purchased Invitrogen
Description: as §1, §2, §3

BRAF = target: T3, BRAF (Homo sapiens, UniProt P15056); test: In vitro kinase assay (Z′-LYTE); format: biochemical; settings: compound 100 nM; ATP 100 μM; read-out: % of inhibition of the kinase compared to the control
T3 construct: purchased Invitrogen
T3 sequence (P15056 whole entry): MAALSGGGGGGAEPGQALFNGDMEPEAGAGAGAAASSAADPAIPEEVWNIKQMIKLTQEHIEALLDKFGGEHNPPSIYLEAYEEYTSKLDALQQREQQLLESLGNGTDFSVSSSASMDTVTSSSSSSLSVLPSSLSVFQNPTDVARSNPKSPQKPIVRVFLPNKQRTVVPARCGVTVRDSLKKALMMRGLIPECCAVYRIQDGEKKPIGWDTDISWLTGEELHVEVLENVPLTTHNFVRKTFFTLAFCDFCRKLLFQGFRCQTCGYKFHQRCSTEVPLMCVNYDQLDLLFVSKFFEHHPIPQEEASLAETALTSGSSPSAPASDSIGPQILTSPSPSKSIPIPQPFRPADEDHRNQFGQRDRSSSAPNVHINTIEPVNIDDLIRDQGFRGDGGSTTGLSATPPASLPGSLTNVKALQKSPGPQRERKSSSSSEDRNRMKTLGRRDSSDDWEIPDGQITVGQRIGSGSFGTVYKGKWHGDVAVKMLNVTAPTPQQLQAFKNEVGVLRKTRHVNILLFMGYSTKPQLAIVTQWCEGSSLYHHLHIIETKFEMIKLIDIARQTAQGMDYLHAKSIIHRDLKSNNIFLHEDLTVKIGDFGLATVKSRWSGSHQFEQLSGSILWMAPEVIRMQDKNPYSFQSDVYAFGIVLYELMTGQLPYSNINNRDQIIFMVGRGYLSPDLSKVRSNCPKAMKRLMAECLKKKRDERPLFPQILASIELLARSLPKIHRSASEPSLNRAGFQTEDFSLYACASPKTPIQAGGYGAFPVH
Description: as §1, §2, §3

EGFR (ErbB1) = target: T4, EGFR (ErbB1) (Homo sapiens, UniProt P00533); test: In vitro kinase assay (Z′-LYTE); format: biochemical; settings: read-out: % of inhibition of the kinase compared to the control
T4 construct: purchased Invitrogen
Description: as §1, §2, §3

EGFR (ErbB1) T790M L858R = target: T5, EGFR (ErbB1) T790M L858R (Homo sapiens, UniProt P00533, L858R/T790M); test: In vitro kinase assay (Z′-LYTE); format: biochemical; settings: read-out: % of inhibition of the kinase compared to the control
T5 construct: purchased Invitrogen
Description: as §1, §2, §3

FGFR1 = target: T6, FGFR1 (Homo sapiens, UniProt P11362); test: In vitro kinase assay (Z′-LYTE); format: biochemical; settings: read-out: % of inhibition of the kinase compared to the control
T6 construct: purchased Invitrogen
T6 sequence (P11362 22-822): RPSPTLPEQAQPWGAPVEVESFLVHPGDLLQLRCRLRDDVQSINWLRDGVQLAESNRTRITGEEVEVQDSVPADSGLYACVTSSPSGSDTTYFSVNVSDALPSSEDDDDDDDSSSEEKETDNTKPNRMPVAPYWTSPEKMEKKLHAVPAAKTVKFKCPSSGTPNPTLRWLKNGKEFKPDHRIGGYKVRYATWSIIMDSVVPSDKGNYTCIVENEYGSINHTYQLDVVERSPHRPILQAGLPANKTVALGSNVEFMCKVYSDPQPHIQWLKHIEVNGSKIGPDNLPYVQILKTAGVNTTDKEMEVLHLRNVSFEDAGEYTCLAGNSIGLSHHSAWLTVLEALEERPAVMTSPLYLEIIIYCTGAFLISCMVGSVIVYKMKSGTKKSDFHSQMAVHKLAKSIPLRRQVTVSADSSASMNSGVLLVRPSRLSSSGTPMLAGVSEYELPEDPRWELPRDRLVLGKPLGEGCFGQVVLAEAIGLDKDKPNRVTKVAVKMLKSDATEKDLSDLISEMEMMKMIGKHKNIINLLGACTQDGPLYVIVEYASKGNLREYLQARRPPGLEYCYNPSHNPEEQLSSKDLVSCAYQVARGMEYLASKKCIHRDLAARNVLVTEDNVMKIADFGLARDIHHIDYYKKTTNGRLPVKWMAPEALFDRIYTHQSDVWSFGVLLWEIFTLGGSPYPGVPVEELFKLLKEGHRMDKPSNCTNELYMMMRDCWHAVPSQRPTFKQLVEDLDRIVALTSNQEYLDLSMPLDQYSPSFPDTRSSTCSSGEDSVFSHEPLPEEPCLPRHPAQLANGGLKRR
Description: as §1, §2, §3

FGFR2 = target: T7, FGFR2 (Homo sapiens, UniProt P21802); test: In vitro kinase assay (Z′-LYTE); format: biochemical; settings: read-out: % of inhibition of the kinase compared to the control
T7 construct: purchased Invitrogen
T7 sequence (P21802 22-821): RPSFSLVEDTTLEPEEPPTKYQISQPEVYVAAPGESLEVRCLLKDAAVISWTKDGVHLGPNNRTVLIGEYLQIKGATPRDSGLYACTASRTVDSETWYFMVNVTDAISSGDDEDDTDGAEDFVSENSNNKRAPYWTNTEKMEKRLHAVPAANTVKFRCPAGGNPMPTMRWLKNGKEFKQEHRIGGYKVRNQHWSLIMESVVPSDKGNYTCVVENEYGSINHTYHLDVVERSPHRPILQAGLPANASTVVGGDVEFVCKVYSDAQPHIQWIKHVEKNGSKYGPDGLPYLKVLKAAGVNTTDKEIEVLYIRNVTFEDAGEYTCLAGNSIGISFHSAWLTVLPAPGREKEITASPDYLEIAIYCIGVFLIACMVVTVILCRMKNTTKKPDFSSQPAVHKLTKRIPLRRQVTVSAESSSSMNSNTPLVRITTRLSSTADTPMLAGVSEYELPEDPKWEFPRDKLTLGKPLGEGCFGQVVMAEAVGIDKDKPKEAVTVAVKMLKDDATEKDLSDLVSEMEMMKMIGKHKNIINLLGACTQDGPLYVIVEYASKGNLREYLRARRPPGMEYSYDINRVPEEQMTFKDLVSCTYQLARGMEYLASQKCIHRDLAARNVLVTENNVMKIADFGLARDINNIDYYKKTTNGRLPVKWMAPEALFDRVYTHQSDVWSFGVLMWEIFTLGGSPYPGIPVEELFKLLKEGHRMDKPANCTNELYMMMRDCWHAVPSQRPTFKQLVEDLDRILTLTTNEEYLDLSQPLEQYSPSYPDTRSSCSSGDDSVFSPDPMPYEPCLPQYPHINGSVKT
Description: as §1, §2, §3

KDR (VEGFR2) = target: T8, KDR (VEGFR2) (Homo sapiens, UniProt P35968); test: In vitro kinase assay (Z′-LYTE); format: biochemical; settings: read-out: % of inhibition of the kinase compared to the control
T8 construct: purchased Invitrogen
Description: as §1, §2, §3

PDGFRA (PDGFR alpha) = target: T9, PDGFRA (PDGFR alpha) (Homo sapiens, UniProt P16234); test: In vitro kinase assay (Z′-LYTE); format: biochemical; settings: read-out: % of inhibition of the kinase compared to the control
T9 construct: purchased Invitrogen
Description: as §1, §2, §3

PDGFRB = target: T10, PDGFRB (Homo sapiens, UniProt P09619); test: In vitro kinase assay (Z′-LYTE); format: biochemical; settings: read-out: % of inhibition of the kinase compared to the control
T10 construct: purchased Invitrogen
T10 sequence (P09619 33-1106): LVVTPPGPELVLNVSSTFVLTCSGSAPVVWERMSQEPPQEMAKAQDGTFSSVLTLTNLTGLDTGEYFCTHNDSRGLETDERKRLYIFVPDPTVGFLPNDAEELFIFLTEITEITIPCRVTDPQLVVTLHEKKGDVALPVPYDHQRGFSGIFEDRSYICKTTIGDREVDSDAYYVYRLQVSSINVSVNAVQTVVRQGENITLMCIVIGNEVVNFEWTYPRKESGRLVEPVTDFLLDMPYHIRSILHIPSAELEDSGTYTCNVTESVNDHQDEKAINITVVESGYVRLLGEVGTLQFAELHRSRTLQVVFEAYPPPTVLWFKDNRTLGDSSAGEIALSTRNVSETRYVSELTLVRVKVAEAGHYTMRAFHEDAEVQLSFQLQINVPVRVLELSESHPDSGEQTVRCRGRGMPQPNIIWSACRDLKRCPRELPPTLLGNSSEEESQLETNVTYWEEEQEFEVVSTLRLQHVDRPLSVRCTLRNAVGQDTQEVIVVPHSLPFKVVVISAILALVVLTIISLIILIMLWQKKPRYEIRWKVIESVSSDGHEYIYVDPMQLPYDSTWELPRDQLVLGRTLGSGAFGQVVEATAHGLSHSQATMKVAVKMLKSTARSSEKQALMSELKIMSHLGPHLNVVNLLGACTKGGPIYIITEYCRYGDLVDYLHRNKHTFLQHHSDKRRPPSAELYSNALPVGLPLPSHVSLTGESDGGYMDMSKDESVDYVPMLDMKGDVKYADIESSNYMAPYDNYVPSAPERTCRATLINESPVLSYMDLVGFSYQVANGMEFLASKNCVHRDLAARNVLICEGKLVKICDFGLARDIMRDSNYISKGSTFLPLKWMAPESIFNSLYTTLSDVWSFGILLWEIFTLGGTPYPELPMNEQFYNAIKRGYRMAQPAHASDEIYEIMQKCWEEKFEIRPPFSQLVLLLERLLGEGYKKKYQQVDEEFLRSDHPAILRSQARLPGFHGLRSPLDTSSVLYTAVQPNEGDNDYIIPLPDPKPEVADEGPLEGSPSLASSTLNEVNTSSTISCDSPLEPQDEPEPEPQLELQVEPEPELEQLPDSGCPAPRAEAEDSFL
Description: as §1, §2, §3

SRC = target: T11, SRC (Homo sapiens, UniProt P12931); test: In vitro kinase assay (Z′-LYTE); format: biochemical; settings: read-out: % of inhibition of the kinase compared to the control
T11 construct: purchased Invitrogen
Description: as §1, §2, §3

VEGFR1 = target: T12, VEGFR1 (Homo sapiens, UniProt P17948); test: In vitro kinase assay (Z′-LYTE); format: biochemical; settings: read-out: % of inhibition of the kinase compared to the control
T12 construct: purchased Invitrogen
T12 sequence (P17948 27-1338): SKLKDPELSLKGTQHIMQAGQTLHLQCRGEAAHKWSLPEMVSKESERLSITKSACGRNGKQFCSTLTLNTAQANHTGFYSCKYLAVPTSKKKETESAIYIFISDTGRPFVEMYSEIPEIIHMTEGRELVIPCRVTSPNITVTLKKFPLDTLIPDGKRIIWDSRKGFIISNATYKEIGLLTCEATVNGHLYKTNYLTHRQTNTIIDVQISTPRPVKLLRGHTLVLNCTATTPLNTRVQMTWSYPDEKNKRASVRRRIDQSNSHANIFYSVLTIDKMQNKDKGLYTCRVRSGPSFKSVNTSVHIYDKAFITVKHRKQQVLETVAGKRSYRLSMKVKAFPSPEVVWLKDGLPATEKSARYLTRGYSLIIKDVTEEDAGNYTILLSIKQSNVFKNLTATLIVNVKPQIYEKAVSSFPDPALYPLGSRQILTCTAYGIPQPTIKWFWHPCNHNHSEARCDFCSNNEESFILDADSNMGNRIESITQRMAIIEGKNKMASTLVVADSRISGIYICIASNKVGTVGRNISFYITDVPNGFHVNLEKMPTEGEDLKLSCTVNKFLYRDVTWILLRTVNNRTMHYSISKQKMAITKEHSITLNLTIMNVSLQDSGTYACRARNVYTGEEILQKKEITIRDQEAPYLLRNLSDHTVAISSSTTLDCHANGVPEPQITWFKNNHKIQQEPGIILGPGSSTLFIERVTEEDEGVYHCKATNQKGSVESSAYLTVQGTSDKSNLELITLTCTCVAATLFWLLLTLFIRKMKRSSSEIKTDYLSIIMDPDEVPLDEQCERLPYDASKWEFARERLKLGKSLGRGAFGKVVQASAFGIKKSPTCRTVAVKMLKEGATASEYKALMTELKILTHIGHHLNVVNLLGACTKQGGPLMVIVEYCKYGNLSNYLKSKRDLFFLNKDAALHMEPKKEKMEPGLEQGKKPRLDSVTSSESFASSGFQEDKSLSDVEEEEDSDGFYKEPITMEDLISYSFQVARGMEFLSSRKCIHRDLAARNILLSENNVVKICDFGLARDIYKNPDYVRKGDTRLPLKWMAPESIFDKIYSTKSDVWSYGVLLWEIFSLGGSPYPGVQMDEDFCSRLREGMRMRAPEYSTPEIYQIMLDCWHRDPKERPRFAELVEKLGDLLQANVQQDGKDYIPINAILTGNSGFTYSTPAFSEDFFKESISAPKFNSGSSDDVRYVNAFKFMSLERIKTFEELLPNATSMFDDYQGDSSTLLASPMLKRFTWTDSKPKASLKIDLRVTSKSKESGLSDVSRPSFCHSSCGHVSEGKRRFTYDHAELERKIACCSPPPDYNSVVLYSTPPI
Description: as §1, §2, §3

A549 = test: In vitro cell proliferation assay (MTT); format: cell-based; settings: Homo sapiens, A549, 72 h
Description: (§4) Cancer cell lines (5×10^3 cells per well) or HUVEC (1×10^4 cells per well) or HRMEC (1×10^4 cells per well) were distributed in 96-well plates and incubating in duplicate with escalating concentrations (10 nM to 3 μM) of compounds for 72 hr. Cell proliferation was measured using MTT (3 [4,5-dimethylthiazol-2-yl]-2,5-diphenyltetrazolium bromide).

BxPC-3 = test: In vitro cell proliferation assay (MTT); format: cell-based; settings: Homo sapiens, BXPC-3, 72 h
Description: as §4

H1975 = test: In vitro cell proliferation assay (MTT); format: cell-based; settings: Homo sapiens, NCI-H1975, 72 h
Description: as §4

HT29 = test: In vitro cell proliferation assay (MTT); format: cell-based; settings: Homo sapiens, HT-29, 72 h
Description: as §4

HUVEC = test: In vitro cell proliferation assay (MTT); format: cell-based; settings: Homo sapiens, 72 h
Description: as §4

HepG2 = test: In vitro cell proliferation assay (MTT); format: cell-based; settings: Homo sapiens, HepG2, 72 h
Description: as §4

MDA-MB-231 = test: In vitro cell proliferation assay (MTT); format: cell-based; settings: Homo sapiens, MDA-MB-231, 72 h
Description: as §4

PC-3 = test: In vitro cell proliferation assay (MTT); format: cell-based; settings: Homo sapiens, PC-3, 72 h
Description: as §4

HuCCT1 = test: In vitro cell proliferation assay (MTT); format: cell-based; settings: Homo sapiens, HuCCT-1, 72 h
Description: as §4

HeLa = test: In vitro cell proliferation assay (MTT); format: cell-based; settings: Homo sapiens, 72 h
Description: as §4

Row | SMILES | inhibition at 10 µM (ABL) | inhibition at 10 µM (ABL T315I) | inhibition at 0.1 µM (BRAF) | inhibition at 0.1 µM (EGFR (ErbB1)) | inhibition at 0.1 µM (EGFR (ErbB1) T790M L858R) | inhibition at 0.1 µM (FGFR1) | inhibition at 0.1 µM (FGFR2) | inhibition at 0.1 µM (KDR (VEGFR2)) | inhibition at 0.1 µM (PDGFRA (PDGFR alpha)) | inhibition at 0.1 µM (PDGFRB) | inhibition at 0.1 µM (SRC) | inhibition at 0.1 µM (VEGFR1) | EC50 (A549) | EC50 (BxPC-3) | EC50 (H1975) | EC50 (HT29) | EC50 (HepG2) | EC50 (MDA-MB-231) | EC50 (HeLa) | EC50 (HUVEC) | also measured
1 | COC(=O)c1cc2cc(NCc3cc(NC(=O)c4ccccc4OC)ccc3C)cnc2[nH]1 [OR1062] |  |  | ≥ 50% | < 50% |  |  | < 50% | < 50% | ≥ 50% |  | ≥ 50% |  | ≥ 1 µM |  |  |  | ≥ 1 µM | 0.1 to 1 µM | ≥ 1 µM | 0.1 to 1 µM | 
2 | COC(=O)c1cc2cc(NCc3cccc(NC(=O)c4ccc(CN5CCN(C)CC5)c(C(F)(F)F)c4)c3)cnc2[nH]1 [OR1067] |  |  | < 50% | ≥ 50% |  |  | ≥ 50% | ≥ 50% | ≥ 50% |  | ≥ 50% |  | 0.1 to 1 µM |  |  |  | ≥ 1 µM |  | 0.1 to 1 µM | ≤ 0.1 µM | 
3 | COC(=O)c1cc2cc(NCc3cc(NC(=O)c4cccc(C)c4)ccc3C)cnc2[nH]1 [OR0607] | ≥ 50% | < 50% | ≥ 50% | < 50% | < 50% | < 50% | < 50% | ≥ 50% | ≥ 50% | ≥ 50% | ≥ 50% | < 50% | 0.1 to 1 µM | 0.1 to 1 µM | 0.1 to 1 µM | 0.1 to 1 µM | 0.1 to 1 µM |  |  | ≤ 0.1 µM | EC50 (HuCCT1): 0.1 to 1 µM
4 | COC(=O)c1cc2cc(NCc3cc(NC(=O)Nc4ccncc4)ccc3C)cnc2[nH]1 [OR0952] |  |  | < 50% | < 50% |  |  | < 50% | < 50% | < 50% |  |  |  | ≥ 1 µM |  |  |  | ≥ 1 µM | ≥ 1 µM | ≥ 1 µM | ≥ 1 µM | 

Further lines, with some results ahead:

Row | inhibition at 10 µM (ABL) | inhibition at 10 µM (ABL T315I) | inhibition at 0.1 µM (BRAF) | inhibition at 0.1 µM (EGFR (ErbB1)) | inhibition at 0.1 µM (EGFR (ErbB1) T790M L858R) | inhibition at 0.1 µM (FGFR1) | inhibition at 0.1 µM (FGFR2) | inhibition at 0.1 µM (KDR (VEGFR2)) | inhibition at 0.1 µM (PDGFRA (PDGFR alpha)) | inhibition at 0.1 µM (PDGFRB) | inhibition at 0.1 µM (SRC) | inhibition at 0.1 µM (VEGFR1) | EC50 (A549) | EC50 (BxPC-3) | EC50 (H1975) | EC50 (HT29) | EC50 (HepG2) | EC50 (MDA-MB-231) | EC50 (HeLa) | SMILES | EC50 (HUVEC) | also measured
5 | ≥ 50% | ≥ 50% | < 50% | ≥ 50% | < 50% | < 50% | < 50% | < 50% | ≥ 50% | < 50% | ≥ 50% | < 50% | 0.1 to 1 µM | 0.1 to 1 µM | 0.1 to 1 µM | 0.1 to 1 µM | 0.1 to 1 µM | ≤ 0.1 µM |  | COC(=O)c1cc2cc(NCc3cc(NC(=O)c4cccc(C(C)C)c4)ccc3C)cnc2[nH]1 [OR0610] | ≤ 0.1 µM | EC50 (PC-3): ≥ 1 µM
6 | ≥ 50% | < 50% | ≥ 50% | < 50% | < 50% | < 50% | < 50% | < 50% | ≥ 50% | ≥ 50% | ≥ 50% | < 50% | 0.1 to 1 µM | ≥ 1 µM | 0.1 to 1 µM | ≥ 1 µM | 0.1 to 1 µM |  |  | COC(=O)c1cc2cc(NCc3cc(NC(=O)Cc4ccccc4Br)ccc3C)cnc2[nH]1 [OR0599] | 0.1 to 1 µM | EC50 (HuCCT1): ≥ 1 µM
